Where two headings read alike, the source gives them in different places.
Tests used:
[1] = fourteen-week study, dogs; cited from earlier work
[2] = rabbits; cited from earlier work
COVID-19 [3] = experiment: COVID-19 clinical trial: clinical improvement on WHO 9-category ordinal scale; assay type: in vivo, human
Description: (§1) Inclusion Criteria • 1. Male or female patients at least 18 years and up to 75 years old • 2. Signed informed consent • 3. Admitted to hospital for treatment of COVID-19. • 4. Patient within 7 days from symptom onset and within 72 hours after laboratory diagnosis (SARS-CoV-2 RT-PCR) • 5. Mild to Moderate COVID-19 disease defined as clinical status category up to 3 on the WHO 9-point ordinal scale, and/or NEWS2 score of 0 to 4 inclusive. • Hospitalized, no oxygen treatment • 6. Presence of at least 1 symptom characteristic for COVID-19 disease, e.g. fever, cough, sore throat, myalgia, fatigue, GI disorders, skin lesions, anosmia, ageusia, headache, etc • 7. In women of childbearing potential, negative pregnancy test and commitment to use contraceptive method throughout the study.
(§2) Patients are screened for 24-36 hours. […] It is encouraged to screen potential participants immediately at the day of hospitalization (including informed consent, assessment of inclusion/exclusion criteria, screening laboratory tests all done by the local central lab, assessment of clinical symptoms criteria) and randomize patients on the same day (thus, Screening period and Day 1 will coincide). To assess eligibility criteria, central local laboratory values obtained within 24-36 hours of randomization will be used, except for pre-study testing of positive status of COVID-19 infection where a 72-hours window.
The secondary endpoints, related to the secondary study objectives are the following: • a. Number of patients achieving clinical improvement on Day 7 • b. Number of patients achieving clinical improvement on Day 14 • c. Number of patients achieving clinical recovery on Day 7 • d. Number of patients achieving clinical recovery on Day 14
(§3) Day 1 is defined as the day of the first IMP/placebo administration.
The clinical disease severity during the study will be assessed based on the WHO Ordinal Scale for Clinical Status (Table 2). The WHO scale is a 9-category ordinal scale and was developed to have a standardized measure of the COVID-19 disease severity. The scale comprises patient status (outpatient or hospitalized), virus status (infected yes or no), limitation of activities, oxygen support, and organ support.
The same picture was observed on Day 5, with difference 18% (p=0.03 . . . ), regarding the endpoint Clinical improvement. This endpoint was measured using WHO 9-category ordinal scale, developed to have a standardized measure of the COVID-19 disease severity. Clinical improvement is defined as a decrease on WHO ordinal scale score by at least one point. For our statistical calculations from data obtained from the clinical trials we used the method described above i.e. O'Brien-Fleming method for normally distributed data.

[4] = acute oral, rats; relative to 200 μg/kg in mice; cited from earlier work
[5] = people treated with ivermectin; cited from earlier work
D-dimer = experiment: COVID-19 clinical trial: predictive marker D-dimer; assay type: in vivo, human
[6] = tested on: human fibroblast cell culture; conditions: cited from earlier work
COVID-19 [7] = experiment: COVID-19 clinical trial: time to hospital discharge; assay type: in vivo, human; conditions: p=0.2755
Description: as §1
as §2, with “window. […]” for “window.”

[8] = variety of species; cited from earlier work
C reactive protein = experiment: COVID-19 clinical trial: predictive marker C reactive protein; assay type: in vivo, human; conditions: Day 14
[9] = rhesus monkeys, cited from earlier work
[10] = various species; cited from earlier work
[11] = dogs; cited from earlier work
[12] = rats; cited from earlier work
[13] = fourteen-week study, rats; cited from earlier work
[14] = mice; cited from earlier work
SARS-CoV-2 = experiment: COVID-19 clinical trial: viral clearance in upper respiratory tract swab samples (RT-PCR); assay type: in vivo, human
Description: as §1, §2
Primary endpoint based on which the primary study objective will be assessed is proportion of patients who have shown negative SARS-CoV-2 PCR test on Day 7.
as §3
Viral Clearance in Upper Respiratory Tract Swab Samples (Qualitative)—Remission
Upper respiratory tract swab samples will be collected on Days 3, 4, 5, 6, 7, 9, 12 and 14 or until two negative results are obtained. Between Day 15 and Day 28 RT-PCR shall be done upon the discretion of the Investigator until 2 consecutive negative tests.
No further RT-PCR tests will be done after 2 consecutive negative tests are obtained at any time point of the study. Swab samples should be obtained from the nasopharynx and oropharynx with two different swabs and combined in one tube, containing universal transport media. Samples are collected preferably in the mornings of each study day. Full instructions for collection, preparation, labelling, storage and shipment of samples are provided in the Laboratory Manual.

[15] = cited from earlier work; for mean peak plasma concentration of the major component (H2B1a): single 12-mg dose (mean 165 mcg/kg)
mouse lymphoma = conditions: cited from earlier work
[16] = repeated dose, 2 weeks, rhesus monkeys; cited from earlier work
[17] = acute oral, mice; cited from earlier work

ivermectin
dose with no adverse effects [1]: 500 µg/kg/day | dose causing cleft palates and clubbed feet [2]: 3 mg/kg/day | Clinical improvement versus placebo arm (COVID-19 [3]; Day 4, p=0.02..., decrease on WHO ordinal scale by at least one point): statistically significant difference | Clinical improvement, difference versus placebo arm (COVID-19 [3]; Day 5, p=0.03...): 18% | Clinical improvement by visit day (COVID-19 [3]; FIG. 3, later difference statistically insignificant): better results at days 4 and 5 | overall clinical benefit versus Placebo treatment arm (COVID-19 [3]; early days of infection (day 4 and day 5 after initial dose)): definitely shows clinical benefit | dose producing tremors and ataxia [4]: slightly higher doses | common side effects [5]: headache, dizziness, drowsiness, muscle pain, abdominal pain, nausea, vomiting or diarrhea, pruritus, fatigue, hypotension | D-dimer mean value (D-dimer; Day 3): 395.8 ng/mL | D-dimer mean value (D-dimer; Day 14): 561.69 ng/mL | unscheduled DNA synthesis [6]: did not induce | Time to hospital discharge, difference between arms (COVID-19 [7]): no statistically significant difference | tolerability of a 200 μg/kg dose [8]: generally well tolerated | CRP mean value (C reactive protein): 13.76 mg/L | CRP median value (C reactive protein): 3.70 mg/L | minimum toxic dose ([9]; acute oral): 2,000 μg/kg | toxic effects (emesis, mydriasis, sedation) at high doses ([9]; doses up to 24 mg/kg (120-fold the clinical dose)): only slight increases in the observed toxic effects | breeding performance [10]: has not been adversely affected | single oral dose with no significant lethality [11]: up to 10 mg/kg | oral dose causing cleft palates [12]: 10 mg/kg/day | dose with no adverse effects [13]: 400 µg/kg/day | oral dose causing cleft palates [14]: 0.4 mg/kg/day | effect on viral clearance (SARS-CoV-2; Day 4, immediately after treatment, 2 consecutive negative PCR tests): beneficial effect on the viral clearance | patients with negative PCR test results (2 consecutive negative tests) (SARS-CoV-2; Day 4, 400 μg/kg/day peroral Days 1-3 plus SoC, placebo arm 42%): 52% | Day of second negative PCR test, Mean (SARS-CoV-2; N=50, 400 μg/kg/day peroral Days 1-3 plus SoC): 5.52 | day by which the effect appears (SARS-CoV-2; PCR test endpoint): < 7 days | Day of second negative PCR test, Difference Reference minus Test (SARS-CoV-2; p-value 0.3407, statistically insignificant): 0.54 days | mean peak plasma concentration of the major component (H2B1a) ([15]; first of two studies, fasting healthy volunteers, range 16.4-101.1): 46.6 (±21.9) ng/mL | period of excretion in the feces ([15]; ivermectin and/or metabolites, excreted almost exclusively in the feces): ~12 days | plasma half-life ([15]; man, oral administration): approximately 18 hours | plasma concentration versus dose ([15]; oral administration): approximately proportional to the dose | administered dose excreted in the urine ([15]; oral): less than 1% | mean peak plasma concentration of the major component (H2B1a) ([15]; second of two studies, fasting healthy volunteers, range 13.9-68.4): 30.6 (±15.6) ng/mL | time of peak plasma concentration after dosing ([15]; single 12-mg dose, fasting healthy volunteers): approximately 4 hours | mouse lymphoma mutation assay result (mouse lymphoma): negative | dose with no adverse effects [16]: up to 1,200 μg/kg/day | dose producing tremors and ataxia [17]: 0.2 mg/kg
